Measurements taken from US20260182575A1, “MOLECULES HAVING PESTICIDAL UTILITY AND INTERMEDIATES AND PROCESSES RELATED THERETO” (CORTEVA AGRISCIENCE LLC, priority 2022, published 2026).

Tests used:
Type in all cases: in vivo
[1] = test system: Fall Armyworm (Spodoptera frugiperda, LAPHFR, FAW); test: Bioassay 7: fall armyworm, artificial diet, 96 well plate
Description: (§1) The test solutions were tested against CEW, FAW, BAW, and SBL using the following procedure: an artificial lepidopteran diet (Multispecies Lepidopteran Diet, Southland Products) was distributed in 96 well plate. Twenty μL of test solution was pipetted onto a cell in the bioassay plate. […] Each treatment was replicated 5 times for each species. Approximately five first instar CEW, FAW, BAW, or SBL larva were placed on top of the diet in each cell and was contained with a clear perforated adhesive lid. Test trays were held at approximately 25° C. and ambient relative humidity prior to grading. After five days, the number of cells where all the larvae were dead were recorded as 100% and averaged across all replicates; then the percent control was measured using Abbott's correction formula (W. S. Abbott, J. Econ. Entomol. 18 (1925), pp. 265-267) as follows:
(§2) where X=No. of live larvae on solvent check and Y=No. of live larvae on treated diet. In Table 7 the “Expected % Control” was calculated using the method described in Colby S. R., Weeds, 1967, 15, 20-22. Bioassay 8: Western Corn Rootworm (Diabrotica virgifera virgifera, DIABVI, “WCR”)

[2] = test system: Soybean Looper (Chrysodeixis includens, PSEPIN, SBL); test: Bioassay 7: soybean looper, artificial diet, 96 well plate; details: CL
Description: as §1, §2

[3] = test system: Corn Earworm (Helicoverpa zea, HELIZE, CEW); test: Bioassay 7: corn earworm, artificial diet, 96 well plate
Description: as §1, §2

[4] = test system: Beet Armyworm (Spodoptera exigua, LAPHEG, BAW); test: Bioassay 7: beet armyworm, artificial diet, 96 well plate
Description: as §1, §2

[5] = test system: Fall Armyworm (Spodoptera frugiperda, LAPHFR, FAW); test: Bioassay 4: fall armyworm, artificial diet, 128-cell tray; details: AI alone, 0.000004 wt %
Description: (§3) Stock solutions were prepared with F1 as well as for each of the active ingredients individually. Test solutions were prepared from the stock solutions. Test solutions were prepared containing F1, the individual active ingredients, and mixtures of F1 with each of the active ingredients. The test solution for F1 was prepared by adding 500 μL of the stock solution to a 25 mL glass vial, then adding 500 μL of a 9:1 mixture of acetone:water. The individual active ingredients were prepared by adding 500 μL of stock solution to a 25 mL glass vial, then adding 500 μL of a 9:1 mixture of acetone:water. The test solutions containing mixtures of F1, and the individual active ingredients were prepared by adding 500 μL of the active ingredient stock solution to a 25 mL glass vial, followed by 500 μL of the F1 stock solution, creating a test solution containing 0.04% (w/v) of F1 and 0.4% (w/v) of the active ingredient. Each test solution was serially diluted to create desired doses of test solutions (F1 at 0.04% (w/v), 0.004% (w/v), 0.0004% (w/v), 0.00004% (w/v), 0.000004% (w/v), and 0.0000004% (w/v) and active ingredients at 0.4% (w/v), 0.04% (w/v), 0.004% (w/v), 0.0004% (w/v), 0.00004% (w/v), and 0.000004% (w/v)).
(§4) The test solutions were tested against CEW, FAW, and SBL using the following procedure: an artificial lepidopteran diet (Multispecies Lepidopteran Diet, Southland Products) was distributed in 128-cell bioassay trays (Frontier Agricultural Sciences™). 50 μL of test solution was pipetted into a cell in the bioassay tray. (The test solution doses of 0.04% (w/v), 0.004% (w/v), 0.0004% (w/v), 0.00004% (w/v), 0.000004% (w/v), and 0.0000004% (w/v) translated to concentrations of 5, 0.5, 0.05, 0.005, 0.0005, and 0.00005 μg/cm^2 on the diet, respectively.) A reference treatment (solvent check) was treated with the diluent only. Each treatment was replicated 8 times for each species. A 2nd instar CEW, FAW, or SBL larva was placed on top of the diet in each cell and was contained with a clear perforated adhesive lid. Test trays were held at approximately 26° C. and ambient relative humidity (RH) prior to grading.
(§5) After 5 days, the number of live larvae were recorded from each cell and percent control was measured using Abbott's correction formula (W. S. Abbott, J. Econ. Entomol. 18 (1925), pp. 265-267) as follows:
(§6) where X=No. of live larvae on solvent check and Y=No. of live larvae on treated diet. In Table B4 the “Expected % Control” was calculated using the method described in Colby S. R., Weeds, 1967, 15, 20-22. Bioassay 5: Neotropical Brown Stink Bug (Euschistus heros, EUSCHE, “BSB”).

[6] = test system: Green Peach Aphid (Myzus persicae, MYZUPE, GPA); test: Bioassay 1: green peach aphid, cabbage seedling foliar spray; details: AI alone at the rate of Wt Ratio F1:AI 1:10256 (F1 0.04), 3 days
Description: Bioassay 1: Green Peach Aphid (Myzus persicae, MYZUPE, “GPA”).
Stock solutions of F1 and various active ingredients were prepared initially at a concentration of 4 milligrams per milliliter (mg/mL) for F1 and 0.1 mg/mL for the active ingredients, respectively, using a 1:1 mixture of acetone:methanol as a diluent. Stock solutions were prepared with F1 as well as for each of the active ingredients individually. Test solutions were prepared from the stock solutions. Test solutions were prepared containing F1, the individual active ingredients, and mixtures of F1 with each of the active ingredients. The test solutions for F1 and the individual active ingredients were prepared by adding 750 microliters (μL) of stock solution to a 25 mL glass vial, then adding 750 μL of 1:1 acetone:methanol solvent, followed by the addition of 13.5 mL water with 0.025% Tween® 20 to create a 0.0005% (weight/volume (w/v)) solution. The test solutions containing mixtures of F1, and the individual active ingredients were prepared by adding 750 μL of the active ingredient stock solution to a 25 mL glass vial, followed by 750 μL of the F1 stock solution, then by the addition of 13.5 mL water with 0.025% Tween® 20 to create a test solution containing 0.0005% (w/v) F1 and 0.0005% (w/v) of the active ingredient. Each test solution was serially diluted to create desired doses of test solutions (0.0005% (w/v), 0.000125% (w/v), 0.00003125% (w/v), 0.0000078% (w/v), 0.00000195% (w/v), and 0.0000005% (w/v)). In test solutions containing mixtures of F1 and the active ingredients, the active ingredients were diluted as described above, but the concentration of F1 was held constant (0.04% (w/v)).
The test solutions were tested against GPA using the following procedure: cabbage seedlings, grown in 3-inch pots with 2-3 small (3-5 centimeter (cm)) true leaves, were used as test substrate. The seedlings were infested with 20-50 GPA (wingless adult and nymph stages) one day prior to chemical application. Four pots with individual seedlings were used for each treatment. A hand-held aspirator-type sprayer was used for spraying a solution to both sides of […] leaves until runoff. Reference plants (solvent check) were sprayed with the diluent only (0.025% Tween® 20 and 10% acetone:methanol (1:1) in water). Treated plants were held in a holding room for three days at approximately 25° C. and ambient relative humidity (RH about 20% to about 45%) prior to grading. Evaluation was conducted by counting the number of live aphids per plant under a microscope three days after treatment. Percent control was measured using Abbott's correction formula (W. S. Abbott, J. Econ. Entomol. 18 (1925), pp. 265-267) as follows:
where X=No. of live aphids on solvent check plants and Y=No. of live aphids on treated plants. In Table B1 the “Expected % Control” was calculated using the method described in Colby S. R., Weeds, 1967, 15, 20-22. Bioassay 2: Sweet Potato Whitefly (Bemisia tabaci, BEMITA, “SPW”).

[7] = test system: Corn Earworm (Helicoverpa zea, HELIZE, CEW); test: Bioassay 4: corn earworm, artificial diet, 128-cell tray; details: AI alone
Description: as §3, §4, §5, §6

[8] = test system: Soybean Looper (Chrysodeixis includens, PSEPIN, SBL); test: Bioassay 4: soybean looper, artificial diet, 128-cell tray; details: AI alone, 0.000004 wt %
Description: as §3, §4, §5, §6

Compound	Average % Control AI ([2]; AI alone at 0.4 wt %)	Average % Control AI ([3]; AI alone at 0.4 wt %)	Average % Control AI ([1]; AI alone at 0.4 wt %)	Average % Control AI ([4]; AI alone at 0.4 wt %)	further results
CN(C(=O)c1ccccc1)c1cccc(C(=O)Nc2c(Br)cc(C(F)(C(F)(F)F)C(F)(F)F)cc2C(F)(F)F)c1F [Broflanilide]	–	–	–	–	Average % Control AI ([1]; AI alone at 0.004 wt %): 0.0%
CCNc1nc(CC)c(C(=O)NC(C#N)c2cccs2)s1 (centres unmarked) [Ethaboxam]	0.0%	12.5%	0.0%	–	–
COc1ccc(Cl)c(S(=O)(=O)NC(=O)c2cn3cc(C(F)(F)F)cc(Cl)c3n2)c1 [Fluazaindolizine]	0.0%	0.0%	0.0%	–	–
O=S(=O)(CCC(F)=C(F)F)c1ncc(Cl)s1 [Fluensulfone]	12.5%	0.0%	0.0%	0.0%	–
O=[N+]([O-])/N=C1\NCCN1Cc1ccc(Cl)nc1 [Imidacloprid]	–	–	–	–	Average % Control AI [5]: 0.0%; Average % Control AI [6]: 40.5%; Average % Control AI ([7]; 0.000004 wt %): 0.0%; Average % Control AI ([7]; 0.00004 wt %): 0.0%; Average % Control AI [8]: 12.5%
CC(C)C1CCC(Cc2ccc(Cl)cc2)C1(O)Cn1cncn1 (centres unmarked) [Ipconazole]	–	0.0%	0.0%	0.0%	–
CNC(=O)O/N=C(\SC)C(=O)N(C)C [Oxamyl]	0.0%	0.0%	0.0%	0.0%	–
CO/C=C(/C(=O)OC)c1ccccc1COc1cccc(C(F)(F)F)n1 [Picoxystrobin]	–	–	–	–	Average % Control AI ([2]; AI alone at 0.04 wt %): 0.0%; Average % Control AI ([3]; AI alone at 0.04 wt %): 0.0%; Average % Control AI ([4]; AI alone at 0.04 wt %): 0.0%
CON(C(=O)c1cn(C)nc1C(F)F)C(C)Cc1c(Cl)cc(Cl)cc1Cl (centres unmarked) [Pydiflumetofen]	0.0%	–	0.0%	0.0%	–
Cc1cc(C)c(C2=C(OC(=O)CC(C)(C)C)C3(CCCC3)OC2=O)c(C)c1 [Spiromesifen]	12.5%	–	12.5%	12.5%	–
Trifloxystrobin	–	0.0%	16.6%	20.0%	–
